{
  "source": "patent EP2382994A1",
  "about": "“Ligand targeted nanocapsules for the delivery of RNAi and other agents” (Cattaneo, Maurizio Victor, priority 2010, dated 2011)",
  "origin": "cited, not measured here",
  "key": {"[1]": {"conditions": "systemic delivery of 20 mg DOX; Tang et al. 2007"}},
  "data": [
    {"smiles": "COc1cccc2c1C(=O)c1c(O)c3c(c(O)c1C2=O)C[C@@](O)(C(=O)CO)C[C@@H]3O[C@H]1C[C@H](N)[C@H](O)[C@H](C)O1", "note": "[DOX, Doxorubicin]", "values": [
      {"measurement": "lethal toxicity, time of treatment", "setting": "[1]", "value": "≤ 8", "unit": "days"},
      {"measurement": "clinical efficacy in melanoma", "setting": "advanced stage melanoma", "value": "essentially ineffective"}
    ]}
  ]
}
